# Experimental data taken from patent US20250090565A1, “Compositions and Methods for Treating Bleeding and Bleeding Disorders” (YewSavin, Inc., priority 2021, published 2025).
# “Also recorded” adds a separate entry of the source.
# How the values were obtained:
# [1] = system: FVIII-deficient plasma; test: Thrombin generation assay (TGA) in FVIII-deficient plasma; assay type: biochemical, human; settings: for thrombin generation ETP dependence on concentration: 0.01 mg/ml, 0.1 mg/ml, and 0.4 mg/ml in FVIII-deficient plasma
# Description: Thrombin generation is regarded as a significant indicator of the efficiency of blood clotting. Therefore, the thrombin generation assay (“TGA”) can be used as a proxy to estimate overall blood clotting efficiency of factor proteins and others agents from observing the clotting of plasma samples. The thrombin generation experiments were run using a microtiter plate fluorometer. Solvent systems consisting of a buffer, a fluorogenic substrate, and eight candidate compounds in inert solvents were added to pre-warmed citrated FVIII-deficient plasma along with tissue factor. The clotting reactions in the plasma-compound mixtures were initiated by adding calcium chloride solution to all the samples, and the fluorescence measurements recorded by the fluorimeter were compared against negative control (FVIII-deficient plasma without compounds or solvent system), vehicle control (FVIII-deficient plasma with solvent system only), and positive control (FVIII-deficient plasma mixed with regular plasma) reference measurements.
# Each of the eight candidate compounds was tested via the TGA at three different concentrations.
# [2] = Bodyweight of Factor VIII deficient mice; assay type: in vivo; settings: FVIII deficient mice, mean (spread)
# [3] = system: ex vivo Hemophilia A human blood; test: Ca+2ACT whole blood coagulation time test, Hemophilia A human blood; assay type: biochemical; settings: for mean clotting time: Hemophilia A blood specimens
# Description: (§1) While there are standardized tests such as Activated Partial Thromboplastin Time (“aPTT”) and Partial Thromboplastin Time (“PPT”) that measure blood clotting times (i.e., coagulation times), none of these tests are amenable to testing a small molecule drug, mainly due to the fact that the clotting agents added in these tests completely overcome the effect of the drug. A Calcium +2 ion Activated Coagulation Time test (“Ca+2ACT test”) was developed for measuring coagulation times that is devoid of the activators, thereby allowing drug candidates to be tested and verify their effects. The results described below use whole blood clotting assay and measure the coagulation of blood (i.e., blood's ability to clot), specifically, how much time is required for the clotting.
# In this study, calcium chloride (“CaCl2”), a standard coagulating compound, is used as a control to compare the efficacy of various test samples. DMA is used as vehicle for various test samples. In a first study, a freshly prepared 5 μl test sample in DMA is added to a 100 μl blood specimen and then incubated in incubation slot of KC1 Delta machine Correlated Stago-Startmax for 37° C. for 3 min. For the control sample, 50 μl of CaCl2 solution is added, and timer started, to a 100 μl blood specimen to provide a baseline against the test sample. A stop watch, and automated electronic machine display, is used to measure the coagulation time in connection with an electronic signal provided the testing machine. Fresh citrated blood specimen from six healthy volunteers and six hemophilia patients, with initial standard citrate concentration in the collected blood of 3.5%, and “in cuvette” calcium +2 activation (by addition of CaCl2 solution) was obtained.
# In this study, the effect of drug is measured by coagulation time of blood using the Ca+2ACT test, in presence of variable concentration of the drug in the test sample. The efficacy tests used 5 microliter of 40 mg/mL solution added to 155 microliter final volume in the clotting cuvette, corresponding to […] of the clotting mixture. For the dose dependence studies, we examined three persons. The twelve concentrations range chosen is 5 microliter of 0.05 mg/mL to 40 mg/mL, the vehicle being zero point concentration. This corresponds to mimimum concentration in the study of 1.66 microgram/mL or 1.66 ppm of the drug, not withstanding Vehicle Control of zero. […] FIG. 45 illustrates coagulation time versus concentration for the candidate molecule 1 for blood specimens from a second patient. FIG. 46 illustrates coagulation time versus concentration for the candidate molecule 1 for blood specimens from a third patient.
# As discussed above, the effect is measured by coagulation time of blood using the Ca+2ACT test, in presence of variable concentration of the drug. Initial efficacy tests used 5 microliters of 40 mg/mL solution added to 155 microliter final volume in the clotting cuvette, corresponding to 1.29 mg/1000 mg of the clotting mixture. More recent tests used 10E-2 to 10E-22 as concentration range with 1E-2 interval. Samples were tested no later than eight hours after collection, and preferably, no later than four hours after collection. Often times, with very low and zero concentrations of clotting agents, although the instrument recorded a clotting time, the samples were fluid and partially coagulated at best. However, good fit was obtained at 1E-18 and good statistical difference was obtained at 1E-16, with significant statistical p-values at 10E-8 and higher concentrations, a very good range for drug design. […] The dose dependence study was performed using NDA solvent, and water in case of Eloctate™.
# [4] = system: Wistar rats; test: Ex vivo capillary clotting assay in Wistar rats; settings: ex vivo oral, compared with chromatography fractions (FIG. 3)
# Description: During the bioassay-guided fractionation process, blood clotting time was used as a screen for active compounds, and a particular class of compounds known as chalcones was discovered to induce blood coagulation. FIG. 3 illustrates a sample result from an ex vivo capillary clotting assay in Wistar rats in accordance with various embodiments of the invention as described in further detail below.
# [5] = system: Factor VIII Deficient Mice; test: Tail bleeding assay in FVIII-KO mice; assay type: in vivo
# Description: (§2) The purpose of this experiment was to evaluate the effectiveness of chalcones on tail bleeding time in mice. […] A distal 10 mm segment of each mouse's tail was amputated with a scalpel and the remaining tail stump was immediately immersed in a 50 mL Falcon tube containing isotonic saline pre-warmed in a water bath to 37° C. Each mouse was allowed to bleed freely for 20 minutes even if bleeding ceased, in order to detect any re-bleeding. Bleeding time was determined using a stopwatch. At the end of the 20 minutes, the experiment was terminated to avoid lethality. All animals were then bled additionally to obtain a sufficient amount of blood for determining fibrinogen content. Organs were collected, weighed and preserved for future assays.
# [6] = system: Factor VIII Deficient Mice; test: Capillary clotting time in Factor VIII deficient mice; assay type: in vivo; settings: FVIII deficient mice; HF-2021a oral once daily for seven days; FVIII intravenous
# [7] = system: ex vivo healthy human blood; test: Ca+2ACT whole blood coagulation time test, healthy human blood; assay type: biochemical; settings: 1 mg/ml, healthy blood specimens; vehicle control 208.87 seconds
# Description: as §1
# In this study, calcium chloride (“CaCl2”), a standard coagulating compound, is used as a control to compare the efficacy of various test samples. DMA is used as vehicle for various test samples. In a first study, a freshly prepared 5 μl test sample in DMA is added to a 100 μl blood specimen and then incubated in incubation slot of KC1 Delta machine Correlated Stago-Startmax for 37° C. for 3 min. For the control sample, 50 μl of CaCl2 solution is added, and timer started, to a 100 μl blood specimen to provide a baseline against the test sample. […]
# [8] = system: Factor VIII Deficient Mice; test: Fibrin (fibrinogen) content of blood of Factor VIII deficient mice; assay type: in vivo; settings: FVIII deficient mice, blood taken at end of experiment
# Description: as §2
# [9] = system: heparinized rabbit blood; test: Heparinized clotting test (in vitro); assay type: biochemical
# Description: The purpose of this experiment was to deduce a potential mechanism of action for chalcones in decreasing blood clotting and bleeding time. First, rabbit blood (200 μL) was added to the anticoagulant drug heparin (1.25 IU) in Eppendorf Tubes®. […] In untreated blood that is still inside a human or an animal, heparan sulfate that is found on cellular surfaces plays an equivalent role to heparin by forming a heparan-antithrombin complex and activating antithrombin.
# [10] = system: normal plasma; test: Thrombin generation assay (TGA) in normal plasma; assay type: biochemical, human
compound,measurement,setting,value
"COc1ccc(/C=C/C(=O)c2c(O)cc(O[C@@H]3O[C@H](CO[C@@H]4O[C@@H](C)[C@H](O)[C@@H](O)[C@H]4O)[C@@H](O)[C@H](O)[C@H]3O)cc2OC)cc1O [HF-2021d, (E)-3-(3-hydroxy-4-methoxyphenyl)-1-[2-hydroxy-6-methoxy-4-[(2S,3R,4S,5S,6R)-3,4,5-trihydroxy-6-[[(2R,3R,4R,5R,6S) -3,4,5-trihydroxy-6-methyloxan-2-yl]oxymethyl]oxan-2-yl]oxyphenyl]prop-2-en-1-one]",thrombin generation ETP dependence on concentration,[1],observed dose dependence
"COc1cc(O)c(C(=O)C=Cc2ccc(O)cc2)c(OC)c1OC [HF-2021a, 1-(6-Hydroxy-2,3,4-trimethoxyphenyl)-3-(4-hydroxy-phenyl)prop-2-en-1-one]",thrombin generation ETP dependence on concentration,[1],observed dose dependence
same,effect on thrombin concentration and ETP compared with HEMLIBRA,"[1]; 0.1 mg/ml versus any of the concentrations of HEMLIBRA (FIG. 28, 29)",comparable effects
same,thrombin response compared with FVIII-deficient plasma containing 10% of normal FVIII,"[1]; 0.4 mg/ml (FIG. 18, 19)",superior to that of 10% of normal FVIII activity
same,effect on thrombin concentration and ETP compared with HEMLIBRA,"[1]; 0.4 mg/ml versus highest tested HEMLIBRA concentration 75 μg/ml (FIG. 28, 29)",slightly larger effect
same,"thrombin concentration and ETP, combined with ELOCTATE","[1]; all tested concentrations, plasma of a patient who had taken ELOCTATE (FIG. 34, 35)",greater thrombin concentrations and ETPs than ELOCTATE® by itself
same,Bodyweight (Day 0),[2]; Day 0 (baseline),17.4 (1.4)
same,Bodyweight (Day 7),[2]; Day 7,18.8 (1.1)
same,mean clotting time,"[3]; 1 mg/mL, vehicle control 228.92 seconds",64.92 s
same,coagulation time versus concentration,"[3]; blood specimens of three patients, twelve concentrations (FIG. 44-46)",clear dependency
same,effect on capillary clotting time,[4],nearly identical to that of the chromatography fractions
same,Optical Density,"[5]; FVIII deficient mice, tail bleeding experiment",0.5 (0.1)
same,tail bleeding time (in words),"[5]; FVIII-KO mice, repeated oral administrations, versus standard FVIII therapy (FIG. 4)",outperforming the standard FVIII therapy; also recorded: significantly improved
same,Survival Rate,[5]; after 48 hours,3/5 after
same,Bleeding Time (Seconds),"[5]; tail amputation 10 mm, saline 37° C., HF-2021a oral once daily for seven days, FVIII intravenous",41.8 (9.7) Seconds
same,Capillary Clotting Time (Seconds),[6],44.6 (13.2) Seconds
same,mean clotting time,[7],74.12 s
same,Fibrin content (mg/dL),[8],281.2 (44.1) mg/dL
same,blood clotting time versus concentration,"[9]; rabbit blood 200 μL + heparin 1.25 IU, varying concentrations in DMSO (FIG. 7)",dose dependence relationship was observed
same,thrombin generation curves versus concentration,[10]; normal plasma (FIG. 20),dose dependent response
same,thrombin generation ETP versus concentration,[10]; normal plasma (FIG. 21),dose dependent response is also observed
"COc1ccc(C=CC(=O)c2c(O)cc(O)cc2O)cc1 [ISK-CH, Iso-Sakutanetin Chalcone]",mean clotting time,"[3]; 1×10^−7 mg/mL, vehicle control 200.87 seconds",116.4 s
"O=C(/C=C/c1ccc(O)cc1)c1c(O)cc(O)cc1O [HF-2021g, (E)-3-(4-hydroxyphenyl)-1-(2,4,6-trihydroxyphenyl)prop-2-en-1-one]",thrombin generation ETP dependence on concentration,[1],observed dose dependence
"CC(C)=CCOc1ccc(/C=C/C(=O)c2ccc(OCC=C(C)C)cc2OCC(=O)O)cc1 [HF-2021e, 2-[5-(3-methylbut-2-enoxy)-2-[(E)-3-[4-(3-methylbut-2-enoxy)phenyl]prop-2-enoyl]phenoxy]acetic acid]",thrombin generation ETP dependence on concentration,[1],observed dose dependence
same,"thrombin concentration and ETP, combined dosing with HEMLIBRA","[1]; 0.1 mg/mL combined with 25, 50, 75 μg/ml HEMLIBRA, versus each drug alone (FIG. 32, 33)",greater thrombin concentrations and ETPs than any individual dosage
same,"thrombin concentration and ETP, combined dosing with HEMLIBRA",[1]; 0.1 mg/ml + 25 μg/ml HEMLIBRA versus 75 μg/ml HEMLIBRA alone,slightly more thrombin concentration and ETP
same,possible cut of the required dose of HEMLIBRA on concurrent use,"[1]; 0.1 mg/ml + 25 μg/ml HEMLIBRA, roughly same thrombin generation as 75 μg/ml",67%
same,effect on thrombin concentration and ETP compared with HEMLIBRA,"[1]; 0.4 mg/ml versus lowest tested HEMLIBRA concentration 25 μg/ml (FIG. 30, 31)",slightly lower effect
same,mean clotting time,"[3]; 0.1 mg/mL, vehicle control 247.61 seconds",118.92 s
same,coagulation times compared with Eloctate,"[3]; HF2021e in NDA, Eloctate in water (FIG. 43)",higher than the coagulation times for Eloctate™
same,EC50 compared with Eloctate,[3]; concentration for 50% of the total effect on coagulation time (FIG. 43),lower than for Eloctate™
same,coagulation time dependence on dose,[3]; dose dependence study in NDA solvent (FIG. 43),linear coagulation time dependence
"COc1ccc(C=CC(=O)c2c(O)cc(OC)cc2OC)cc1 [HF-2021b, 1-(2-hydroxy-4,6-dimethoxyphenyl)-3-(4-methoxyphenyl)prop-2-en-1-one]",thrombin generation ETP dependence on concentration,[1],observed dose dependence
same,activity in the heparinized blood assay,[9]; heparinized blood,active blood clotting agent
"O=C(/C=C/c1ccc(O)cc1)c1ccc(O)cc1O [HF-2021c, (E)-1-(2,4-dihydroxyphenyl)-3-(4-hydroxyphenyl)prop-2-en-1-one]",thrombin generation ETP dependence on concentration,[1],observed dose dependence
"4-methoxyphenyl-3-(2,4-dimethoxyphenyl)-1-oxo-2-propene [HF-2021f]",thrombin generation ETP dependence on concentration,[1],observed dose dependence
"O=C(C=Cc1ccc2c(c1)OCO2)c1ccccc1 [HF-2022a, 3-(1,3-Benzodioxol-5-yl)-1-phenyl-2-propen-1-one]",thrombin generation ETP dependence on concentration,[1],observed dose dependence
